We go through 13 compounds from patent US5225528A, “Cyclic hexapeptide oxytocin antagonists” (priority 1990, dated 1993).

One assay concerns the target T1, uterine OT receptors (Rattus norvegicus, UniProt P70536).
T1 construct: from tissue; host or cells: uterus of DES-treated rats, crude membranes
T1 sequence (P70536 1-388): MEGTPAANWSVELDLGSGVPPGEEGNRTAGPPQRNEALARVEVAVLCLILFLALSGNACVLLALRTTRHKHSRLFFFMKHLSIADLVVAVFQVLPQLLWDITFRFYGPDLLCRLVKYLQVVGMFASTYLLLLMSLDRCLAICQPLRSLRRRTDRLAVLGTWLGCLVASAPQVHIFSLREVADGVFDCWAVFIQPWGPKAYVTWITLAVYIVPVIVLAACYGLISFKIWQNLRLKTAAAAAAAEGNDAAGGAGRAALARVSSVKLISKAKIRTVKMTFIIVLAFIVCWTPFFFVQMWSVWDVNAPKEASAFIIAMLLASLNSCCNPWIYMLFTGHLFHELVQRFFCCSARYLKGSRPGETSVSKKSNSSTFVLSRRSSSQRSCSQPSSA
Nature of the assay: [^3 H]OT binding to uterine OT receptors, crude membrane preparation of uteri from DES-treated rats. The settings on record: for inhibition at 0.1 µM: @ 100 (nM). The protocol:
Competition studies were conducted at equilibrium (60 minutes; 22° C.) using 1 nM [^3 H]OT in the following assay buffer: 50 mM Tris-HCl, 5 mM MgCl2, and 0.1% BSA, pH 7.4.

For another assay, the target named is T2, AVP-V1 sites (Rattus norvegicus, UniProt P30560).
T2 construct: crude membrane preparation of male rat liver (AVP-V1 sites); from tissue; host or cells: male rat liver, crude membranes
T2 sequence (P30560 whole entry): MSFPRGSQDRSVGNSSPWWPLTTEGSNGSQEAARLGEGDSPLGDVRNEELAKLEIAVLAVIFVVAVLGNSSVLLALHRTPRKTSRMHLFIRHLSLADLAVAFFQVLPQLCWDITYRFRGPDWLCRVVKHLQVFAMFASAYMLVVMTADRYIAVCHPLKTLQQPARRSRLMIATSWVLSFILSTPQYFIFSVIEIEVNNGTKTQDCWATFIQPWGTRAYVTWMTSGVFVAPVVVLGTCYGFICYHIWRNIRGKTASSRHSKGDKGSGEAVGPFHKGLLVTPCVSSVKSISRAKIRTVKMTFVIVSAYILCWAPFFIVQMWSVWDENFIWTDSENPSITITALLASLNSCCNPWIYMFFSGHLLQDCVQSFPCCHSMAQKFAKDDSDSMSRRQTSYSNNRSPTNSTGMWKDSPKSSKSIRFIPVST
Nature of the assay: [^3 H]AVP binding to crude membrane preparation of male rat liver (AVP-V1 sites). The method, then: (§1) Nonspecific binding (5-10% of the total binding) was determined using 10 μM unlabeled AVP, and the binding reaction was terminated by filtration as described above for the [^3 H]OT binding assay.

The next assay concerns the target T3, AVP-V2 sites (Rattus norvegicus, UniProt Q00788).
T3 construct: male rat liver (AVP-V1 sites) or kidney medulla (AVP-V2 sites); from tissue; host or cells: male rat kidney medulla, crude membranes
Nature of the assay: [^3 H]AVP binding to crude membrane preparation of male rat kidney medulla (AVP-V2 sites). The settings on record: for IC50: read-out: Receptor Binding Results IC50 (nM) [^3 H]-AVP-V2. The method, then:
as §1

[1] abbreviates: rat uterus membranes, 1 nM [^3 H]OT, read-out: Receptor Binding Results IC50 (nM) [^3 H]OT.
The mark [2] stands for this setting: read-out: Receptor Binding Results IC50 (nM) [^3 H]-AVP-V1.
Setting [3] is: Receptor Binding Results IC50 (nM) [^3 H]-AVP-V1.
Setting [4] is: rat kidney medulla membranes, 2 nM [^3 H]AVP.
Where [5] appears, read: 1 h, read-out: [^3 H]OT: percent inhibition of radioligand at the given concentration.

Where two headings read alike, the source gives them in different places. Numbered stars: 1 amine (or outer) side, 2 acyl side, 3 side chain; on linkers, the order of the positions; unused ones are H or OH. Square brackets hold non-standard residues; d marks the D form. Peptide text beside a SMILES is read from it. * marks the point of attachment. dPip(4-aza,4-Cbz) = O=C(O)[C@H]1CN(C(=O)OCc2ccccc2)CCN1; X2 = O=C(OCc1ccccc1)N1CCN([*:1])[C@H](C(=O)[*:2])C1; dPiz(1,6-dehydro) = O=C(O)[C@H]1CCC=NN1; d1Nal = N[C@H](Cc1cccc2ccccc12)C(=O)O; d2Nal = N[C@H](Cc1ccc2ccccc2c1)C(=O)O; Pip(4-aza) = O=C(O)[C@@H]1CNCCN1; X6 = O=C([C@H]1CCCNN1[*:1])[*:2]; dNMeF = CN[C@H](Cc1ccccc1)C(=O)O; Pip = O=C(O)[C@@H]1CCCCN1; dPip = O=C(O)[C@H]1CCCCN1; Orn = NCCC[C@H](N)C(=O)O; dNMeA = CN[C@H](C)C(=O)O; Boc = CC(C)(C)OC(=O)*; tBu = CC(C)(C)*

T3 sequence (Q00788 whole entry): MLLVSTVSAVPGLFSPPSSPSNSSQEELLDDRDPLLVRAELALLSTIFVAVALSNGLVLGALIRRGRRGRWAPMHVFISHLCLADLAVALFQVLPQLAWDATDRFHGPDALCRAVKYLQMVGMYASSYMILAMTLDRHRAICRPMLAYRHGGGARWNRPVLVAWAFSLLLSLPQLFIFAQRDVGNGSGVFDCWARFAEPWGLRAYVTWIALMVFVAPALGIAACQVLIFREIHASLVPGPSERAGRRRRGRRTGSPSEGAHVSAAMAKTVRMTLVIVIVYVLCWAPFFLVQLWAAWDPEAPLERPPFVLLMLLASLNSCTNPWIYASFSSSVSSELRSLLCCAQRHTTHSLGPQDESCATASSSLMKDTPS

`CC[C@H](C)[C@@H]1NC(=O)[C@@H](Cc2c[nH]c3ccccc23)NC(=O)[C@@H]2CCCN2C(=O)[C@@H](Cc2ccccc2)N(C)C(=O)[C@@H]2CNCCN2C(=O)[C@H]2CCC=NN2C1=O` [Example 170, c-[D-Tryptophanyl-L-isoleucinyl-D-Δ-piperazyl-L-piperazin-2-yl-N^α -Me-D-phenylalanyl-L-prolyl]] (cyclo(I[dPiz(1,6-dehydro)][Pip(4-aza)][dNMeF]P[dW])): the values for the IC50 at uterine OT receptors (setting [1]), on AVP-V1 sites (setting [2]) and at AVP-V2 sites were 3.1 nM, 6850 nM and 175 nM, respectively.

Regarding `CC[C@H](C)[C@@H]1NC(=O)[C@@H](Cc2c[nH]c3ccccc23)NC(=O)[C@@H]2CCCN2C(=O)[C@@H](Cc2c[nH]cn2)NC(=O)[C@H](CCCNC(=O)OC(C)(C)C)NC(=O)[C@H]2CCCNN2C1=O` [Example 128, c-[D-Tryptophanyl-L-isoleucyl-D-piperazyl(N^δ -Boc)-L-or nithyl-D-histidyl-L-prolyl]] (cyclo(I[X6][Orn](Boc)[dH]P[dW])), the IC50 (in general, the point on the concentration scale where inhibition reaches its midpoint) turned out to be 118 nM on uterine OT receptors (setting [1]), 10000 nM at AVP-V1 sites (setting [3]) and 10000 nM on AVP-V2 sites (setting [4]).

Consider `CC[C@H](C)[C@@H]1NC(=O)[C@@H](Cc2ccccc2)NC(=O)[C@@H]2CCCN2C(=O)[C@@H](Cc2ccccc2)N(C)C(=O)[C@@H](C)N(C)C(=O)[C@H]2CCCCN2C1=O` [Example 6, Cyclo[D-phenyalanyl-L-isoleucyl-D-pipecolyl-L-(N^α -methyl)alanyl-D-(N^α Methyl)phenylanyl-L-prolyl]] (cyclo([dF]I[dPip][dNMeA][dNMeF]P)), for which the IC50 at uterine OT receptors (setting [1]) is 1800 nM; at AVP-V1 sites (setting [3]), > 10000 nM; on AVP-V2 sites (setting [4]) it was > 10000 nM.

“c-[D-2-Trytophanyl-L-isoleucinyl-D-pipecolyl-L-piperazin-2-yl-(4-Cbz)-D-histidinyl(BOM)-L-prolyl] [Example 175]”: the “[^3 H]OT: percent inhibition of radioligand at the given concentration” value at uterine OT receptors (@ 1,000 (nM)) stood at 79%. Also, the “[^3 H]-AVP-V1: percent inhibition of radioligand at the given concentration” value on AVP-V1 sites (@ 10,000 (nM)) came out at 54%. The “[^3 H]-AVP-V2: percent inhibition of radioligand at the given concentration” value at AVP-V2 sites (@ 10,000 (nM)) came to 81%.

Take `CC[C@H](C)[C@@H]1NC(=O)[C@@H](Cc2ccccc2)NC(=O)[C@@H]2CCCN2C(=O)[C@@H](Cc2ccccc2)N(C)C(=O)[C@@H]2CCCCN2C(=O)[C@H]2CCC=NN2C1=O` [Example 112, c-[D-Phenylalanyl-L-isoleucyl-D-Δ-piperazyl-L-pipecolyl-N-methyl-D-phenylalanyl-L-prolyl]] (cyclo(I[dPiz(1,6-dehydro)][Pip][dNMeF]P[dF])): the IC50 was 14.7 nM at uterine OT receptors (setting [1]), 3450 nM on AVP-V1 sites (setting [2]) and 1170 nM on AVP-V2 sites.

As to `CC[C@H](C)[C@@H]1NC(=O)[C@@H](Cc2ccc3ccccc3c2)NC(=O)[C@@H]2CCCN2C(=O)[C@@H](Cc2ccccc2)N(C)C(=O)[C@@H]2CNCCN2C(=O)[C@H]2CCCCN2C1=O` [Example 171, c-[D-2-Naphthylalanyl-L-isoleucinyl-D-pipecolyl-L-piperazin-2-yl-D-(N^α -methyl)phenylalanyl-L-prolyl]] (cyclo(I[dPip][Pip(4-aza)][dNMeF]P[d2Nal])), the IC50 on uterine OT receptors (setting [1]) amounted to 3.9 nM; at AVP-V1 sites (setting [2]), 15000 nM; on AVP-V2 sites, 335 nM.

In the case of `CC[C@H](C)[C@@H]1NC(=O)[C@@H](Cc2ccccc2)NC(=O)[C@@H]2CCCN2C(=O)[C@@H](Cc2ccccc2)NC(=O)[C@@H]2CN(C(=O)OCc3ccccc3)CCN2C(=O)[C@H]2CCCCN2C1=O` [Example 77, c-[D-Phenylalanyl-L-isoleucinyl-D-pipecolyl-L-piperazin-2-yl(4-Cbz)-D-phenylalanyl-L-prolyl]] (cyclo(I[dPip][X2][dF]P[dF])), the IC50 is 240 nM at uterine OT receptors (setting [1]), 10000 nM on AVP-V1 sites (setting [3]) and 12300 nM at AVP-V2 sites.

Regarding `CC[C@H](C)[C@@H]1NC(=O)[C@@H](Cc2ccc(OC)cc2)NC(=O)[C@@H]2CCCN2C(=O)[C@@H](Cc2ccccc2)N(C)C(=O)[C@H](CCCCNC(=O)OC(C)(C)C)NC(=O)[C@H]2CCCCN2C1=O` [Example 149, c-[D-(O-Methyl)Tyrosyl-L-isoleucyl-D-pipecolyl-L-(N-t-butyloxycarbonyl)lysyl-D-(N-methyl)phenylalanyl-L-prolyl]] (cyclo(I[dPip]K(Boc)[dNMeF]P[dY](Me))), the inhibition at 0.1 µM at uterine OT receptors (setting [5]) worked out at 53%. The IC50 is > 10000 nM on AVP-V1 sites (setting [3]) and 10000 nM on AVP-V2 sites (setting [4]).

Consider `CC[C@H](C)[C@@H]1NC(=O)[C@@H](Cc2ccc(OC(C)(C)C)cc2)NC(=O)[C@@H]2CCCN2C(=O)[C@@H](Cc2ccccc2)N(C)C(=O)[C@H](CCCCNC(=O)OC(C)(C)C)NC(=O)[C@H]2CCCCN2C1=O` [Example 144, C-[D-(O-t-Butyl)Tyrosiniyl-L-isoleucyl-D-pipecolyl-L(N-t-butyloxycarbonyl)lysyl-D-(N-methyl)phenylalanyl-L-prolyl]] (cyclo(I[dPip]K(Boc)[dNMeF]P[dY](tBu))), for which the inhibition at 1 µM at uterine OT receptors (1 h, @ 1,000 (nM), read-out: [^3 H]OT: percent inhibition of radioligand at the given concentration) is 67%. Moreover, the IC50 at AVP-V1 sites (setting [3]) was > 10000 nM; on AVP-V2 sites (setting [4]), 10000 nM.

For `CC[C@H](C)[C@@H]1NC(=O)[C@@H](Cc2c[nH]c3ccccc23)NC(=O)[C@@H]2CCCN2C(=O)[C@@H](Cc2ccccc2)NC(=O)[C@H]2CN(C(=O)OCc3ccccc3)CCN2C(=O)[C@H]2CCCCN2C1=O` [Example 90, c-[D-Tryptophanyl-L-isoleucinyl-D-pipecolyl-D-piperazin-2-yl(4-Cbz)-D-phenylalanyl-L-prolyl]] (cyclo(I[dPip][dPip(4-aza,4-Cbz)][dF]P[dW])), at uterine OT receptors (setting [5]), the inhibition at 0.1 µM is 59%. In addition, the IC50 at AVP-V1 sites (setting [3]) and on AVP-V2 sites (setting [4]) was > 10000 nM throughout.

For the compound `CC[C@H](C)[C@@H]1NC(=O)[C@@H](Cc2ccccc2)NC(=O)[C@@H]2CCCN2C(=O)[C@@H](Cc2ccccc2)N(C)C(=O)[C@H](CCCCN)NC(=O)[C@H]2CCC=NN2C1=O` [Example 174, c-[D-Phenylalanyl-L-isoleucyl-D-Δ-piperazyl-L-Lysyl-N-Me-D-phenylalanyl-L-prolyl]] (cyclo(I[dPiz(1,6-dehydro)]K[dNMeF]P[dF])), the half-maximal inhibitory concentration (IC50) was found to be 21 nM at uterine OT receptors (setting [1]), 610 nM on AVP-V1 sites (setting [2]) and 570 nM on AVP-V2 sites.

In the case of `CC[C@H](C)[C@@H]1NC(=O)[C@@H](Cc2cccc3ccccc23)NC(=O)[C@@H]2CCCN2C(=O)[C@@H](Cc2ccccc2)N(C)C(=O)[C@H](CCCCNC(=O)OC(C)(C)C)NC(=O)[C@H]2CCCCN2C1=O` [Example 139, C-[D-1-Napthylalanyl-L-isoleucyl-D-pipecolyl-L-(N-t-butyloxycarbonyl)lysyl-D-(N-methyl)phenylalanyl-L-prolyl]] (cyclo(I[dPip]K(Boc)[dNMeF]P[d1Nal])), the inhibition at 0.1 µM at uterine OT receptors (setting [5]) was found to be 24%. Moreover, the IC50 at AVP-V1 sites (setting [2]) and at AVP-V2 sites was 8000 nM each time.

With `CC[C@H](C)[C@@H]1NC(=O)[C@@H](Cc2ccccc2)NC(=O)[C@@H]2CCCCN2C(=O)[C@@H](Cc2ccccc2)N(C)C(=O)[C@@H]2CCCCN2C(=O)[C@H]2CCCCN2C1=O` [Example 108, c-[D-phenylalanyl-L-isoleucyl-D-pipecolyl-L-pipecolyl-N-methyl-D-phenylalanyl-L-pipecolyl]] (cyclo(I[dPip][Pip][dNMeF][Pip][dF])), the IC50 came to 655 nM on uterine OT receptors (Receptor Binding Results IC50 (nM) [^3 H]OT), 10000 nM on AVP-V1 sites (setting [3]) and 10000 nM on AVP-V2 sites (setting [4]).
